Read-outs that look alike come from different tables or passages of the source.

Common to all, as to type: cell-based
The test system of assay [1] is A2780 cis, variant of A2780 showing resistance to cis-platin. In words: Cell growth inhibition, A2780 cis (cis-platin resistant variant). To be noted: 24 hours exposure. As to the method: (§1) The compounds are tested on 24 -well trays. Cells growing in a flask are harvested just before they become confluent, counted using a haemocytometer and diluted down with media to a concentration of 1×10^4 cells per ml. The cells are then seeded in the 24 -well trays at a density of […] (i.e. 1 ml of the diluted cell suspension is added to each well). The cells are then left to plate down and grow for 72 hours before adding the compounds of the invention.
(§2) The Ru complexes are weighed out and made up to a concentration of is 1 mg/ml with deionised water then sonicated, until they go into solution. The appropriate volume of the Ru solution is added to 5 ml of media to make it up to a concentration of 100 μM for each drug. This 100 μM solution is then serially diluted to make up the 10 μM, 1 μM and 0.1 μM solutions.
(§3) The media is removed from the cells and replaced with 1 ml of the media dosed with drug. Each concentration is done in duplicate. A set of control wells are left on each plate, containing media without drug.
(§4) The cells are left exposed to the drugs for 24 hours and then washed with phosphate buffered saline before fresh media is added.
(§5) They are allowed to grow on for a further 3 days before being counted using a Coulter counter.
(§6) • Media is removed and 1 ml of PBS is added to the cells. • 250 μl of trypsin is added and cells left in incubator for a few minutes to allow the monolayers to detach. • Once trypsinised, 250 μl of media is added to each well to neutralise the trypsin. 200 μl of this suspension is added to 10 ml of NaCl for counting. 2. Results
(§7) The experiments were repeated to investigate the effect of the compounds of the invention on drag-resistant variants of the A2780 cell line.

Assay [2] deals with A2780 ovarian cancer cell line. Put plainly: Cell growth inhibition, A2780 ovarian cancer cell line. On the procedure: as §1, §2, §3, §4, §5, §6
Using the above protocol, a number of compounds of the invention were tested on A2780 ovarian cancer cell line.

Assay [3] deals with A2780 AD, variant of A2780 showing resistance to adriomycin. Put plainly: Cell growth inhibition, A2780 AD (adriomycin resistant variant). The settings on record: multidrug resistant, over expresses p glycoprotein, 24 hours exposure. As to the method:
as §1, §2, §3, §4, §5, §6, §7

The mark [4] stands for this setting: A2780, repeated experiments with drug-resistant variants, 24 hours exposure, read-out: IC50 A2780.
[5] abbreviates: A2780 ovarian cancer cell line, 24 hours drug exposure, counted after a further 3 days, first experiment, read-out: IC50.

As for `C1=CCC2=C(C1)Cc1ccccc1C2.F[P-](F)(F)(F)(F)F.NCCN.[Cl][Ru+]` [Example 1, [(η^6-C14H14)RuCl(en)]^+PF6], the IC50 worked out at 1 µM in assay [1], 0.5 µM in assay [2] (setting [4]), 0.5 µM in assay [2] (setting [5]) and 328 µM in assay [3].

As for `C1=CCC2=C(C1)Cc1ccccc1C2.[Cl][Ru][Cl]` [Example 2, [(η^6-C14H14)RuCl2(DMSO)]], the IC50 in assay [1] was determined as 493 µM; in assay [2] (setting [4]), 94 µM; in assay [2] (setting [5]), 94 µM; in assay [3] it was 4 µM.

Turning to `C1=CCC2=C(C1)Cc1ccccc1C2.CC#N.CC#N.F[P-](F)(F)(F)(F)F.[Cl][Ru+]` [Example 3, [(η^6-C14H14)RuCl(CH3CN)2]^+PF6^−], the IC50 in assay [1] was 2 µM; in assay [2] (setting [4]) it was 116 µM; in assay [2] (setting [5]), 177 µM; in assay [3], 2 µM.

In the case of `F[P-](F)(F)(F)(F)F.NCCN.[Cl][Ru+].c1ccc2c(c1)Cc1ccccc1C2` [Example 4, [η^6-C14H12)RuCl(en)]^+PF6−], the IC50 in assay [1] was determined as 16 µM; in assay [2] (setting [4]) it was 2 µM; in assay [2] (setting [5]) it was 0.3 µM; in assay [3], 104 µM.

For the compound `[Cl][Ru][Cl].c1ccc2c(c1)Cc1ccccc1C2` [Example 5, [(η^6-C14H12)RuCl2(DMSO)]], the IC50 in assay [1] is 2 µM; in assay [2] (setting [4]), 126 µM; in assay [2] (setting [5]), 68 µM; in assay [3] it was 5 µM.

For `CC#N.CC#N.F[P-](F)(F)(F)(F)F.[Cl][Ru+].c1ccc2c(c1)Cc1ccccc1C2` [Example 6, [(η^6-C14H12)RuCl(CH3CN)2]^+PF6^−], the IC50 in assay [1] is 2 µM; in assay [2] (setting [4]), 192 µM; in assay [2] (setting [5]), 315 µM; in assay [3], 0.9 µM.

Regarding “{[(η^6-C14H14)RuCl]2[H2N(CH2)2NH(CH2)6NH(CH2)2NH2−N,N′N″,N′″]}^2+.2PF6^− [Example 7]”, the IC50 in assay [2] (setting [5]) turned out to be 6 µM.

By IC50 is commonly meant the concentration needed to halve the response being measured.

The values above are taken from patent US6936634B2, “Ruthenium (II) compounds for use in the therapy of cancer” (The University Court, The University of Edinburgh (UK), priority 2000, dated 2005).
